# Reference: patent US12102631B2, “Quinolylnitrones for the treatment and prevention of a cerebral stroke or ischaemia” (ISQUAEMIA BIOTECH, S.L., priority 2018, dated 2024)
# How the values were obtained:
# [1] = test system: primary neuronal cultures from rat cerebral cortex; test: Neuroprotection (MTT cell viability) in primary neuronal cultures exposed to oxygen-glucose deprivation (OGD); format: cell-based; conditions: 24 h recovery after 4 h OGD; for neuronal viability compared with R24 h (in words): concentrations as stated or in FIG. 4
# Protocol: Primary neuronal cultures. Primary neuronal cultures from rat cerebral cortex were prepared as previously described.^54 All procedures associated with animal experiments were approved by the Ethics Committee of the Hospital Ramón y Cajal, Madrid (Spain). Cell suspensions from cerebral cortex were prepared from 16- to 17-day-old Sprague-Dawley rat embryos. Living cells in cell suspension were counted by trypan blue exclusion method. Cells were seeded on plastic multidishes precoated with 0.05 mg/mL poly-D-lysine at a density of 2.5×10^5 cells/cm^2 and were kept at 37° C. in a 6.5% CO2 atmosphere in high glucose Dulbecco's medium supplemented with 15% heat-inactivated (56° C. for 30 min) foetal calf serum. After 24 h, cultured cells were […] to induce experimental ischemia.^23 Cultured cells were washed and placed in glucose-free Dulbecco's medium (bubbled with 95% N2/5% CO2 for 30 min), and maintained in a humidified hypoxia chamber equipped with an oxygen and carbon dioxide control unit (Biospherix) at 6.5% CO2 and <0.1% O2 in N2 at 37° C. Cells were exposed to OGD for a period of 4 h (OGD 4 h). At the end of the OGD period, culture medium was replaced with oxygenated serum-free medium, and cells were placed and maintained in the normoxic incubator for 24 h to recovery (R24 h). In the neuroprotection experiments, the compounds were added at the onset of recovery period. Control cultures in Dulbecco's medium containing glucose were kept in the normoxic incubator for the same period of time as the OGD, and then medium (Dulbecco's/Ham's F12, 1:1 [vol/vol], 5 mg/mL glucose, 2 mM L-glutamine, and 1 mM sodium pyruvate, and supplemented with 100 μg/mL transferrin, 100 μM putrescine, 20 nM progesterone, 30 nM sodium selenite and 5 μg/mL insulin). Here, 6-7 day old cultured neurons were used in the experiments, and contained 90% β-III-tubulin-positive mature neurons, as described previously.^55
# Exposure of cell cultures to oxygen-glucose deprivation and treatments. Primary neuronal cultures were exposed to […]. Control experiments included the same amounts of vehicle (final concentration<0.5% ethanol). Nitrone 2 was used as reference compound for neuroprotection. The experimental procedures were blindly performed, assigning a random order to each assayed nitrone. Nitrones were analyzed independently four-eight times with different batch of cultures and each experiment was run in quadruplicate.
# Cell viability assay. Cell viability was evaluated by quantification of living, metabolically active cells, as determined by a colorimetric assay using the photometric reduction of 3-(4,5-dimethylthiazol-2-yl)-2,5-diphenyl tetrazolium bromide (MTT) (Roche) to a blue formazan product. The assay of living, metabolically active cells was performed by incubating with 0.2 mg/mL MTT in the culture medium for 1.5 h in an incubator at 37° C. in a 6.5% CO2 atm. After the incubation period, cells were lysed with an equal volume of 10 mM HCl and 10% SDS overnight. Values were quantified by absorbance (test 595 nm, reference 690 nm). Decreased MTT activity denotes impairment of mitochondrial function and is considered to be an index of cell damage. Primary neuronal cultures were collected at times indicated for MTT determination.
# Neuroprotection of compounds was evaluated by a cell viability assay. The neuroprotective effect of the compounds 5-32 was evaluated on primary neuronal cultures from cerebral cortex subjected to oxygen-glucose deprivation (OGD) to induce experimental ischemia. Afterwards, cultured neurons were placed and kept in normoxic and normoglycemic conditions to recovery. […]
# soybean lipoxygenase LOX = molecular target: T1, soybean lipoxygenase LOX (Glycine max, UniProt P08170); test: Lipoxygenase (LOX) inhibition, UV-based enzyme assay; format: biochemical; conditions: for LOX (%): tested at 100 μM
# T1 sequence (P08170 1-839): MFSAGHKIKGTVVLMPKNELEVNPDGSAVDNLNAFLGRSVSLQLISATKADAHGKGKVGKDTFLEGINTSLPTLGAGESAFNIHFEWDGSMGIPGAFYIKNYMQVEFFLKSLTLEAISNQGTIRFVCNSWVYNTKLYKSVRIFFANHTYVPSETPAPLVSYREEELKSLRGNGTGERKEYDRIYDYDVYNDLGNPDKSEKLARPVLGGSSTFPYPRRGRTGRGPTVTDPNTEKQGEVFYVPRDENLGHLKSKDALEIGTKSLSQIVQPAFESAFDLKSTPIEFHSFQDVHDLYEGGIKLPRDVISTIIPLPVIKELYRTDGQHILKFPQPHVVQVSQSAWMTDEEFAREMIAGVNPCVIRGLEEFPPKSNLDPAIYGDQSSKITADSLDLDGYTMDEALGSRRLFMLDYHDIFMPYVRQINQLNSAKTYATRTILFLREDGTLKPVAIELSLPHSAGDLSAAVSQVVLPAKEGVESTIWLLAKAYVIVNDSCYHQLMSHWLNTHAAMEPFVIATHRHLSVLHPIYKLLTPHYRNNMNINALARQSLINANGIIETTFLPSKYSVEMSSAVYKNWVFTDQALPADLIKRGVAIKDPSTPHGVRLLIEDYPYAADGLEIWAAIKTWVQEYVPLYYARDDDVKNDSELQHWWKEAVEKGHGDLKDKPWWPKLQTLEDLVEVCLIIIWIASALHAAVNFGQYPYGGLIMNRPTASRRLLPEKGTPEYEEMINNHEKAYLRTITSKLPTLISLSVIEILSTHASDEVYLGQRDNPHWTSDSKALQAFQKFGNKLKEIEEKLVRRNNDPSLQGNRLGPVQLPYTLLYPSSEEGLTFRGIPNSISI
# From the text: 3.5. Lipoxygenase inhibition of QNs. […] A key strategy to prevent potential damage to cellular compounds such as DNA, proteins and lipids is to reduce the free radical load. […] LOX index, a novel predictive biochemical marker for coronary heart disease and stroke. […] Thus, LOX inhibitors may provide multifactorial protection against ischemic injury. […] Most of the LOX inhibitors are often antioxidants or free radical scavengers.
# [2] = Rattus norvegicus, R24 h = 0%, control = 100%
Structure (SMILES),neuronal viability compared with R24 h (in words) [1],"viability at 100 µM [1, 2]","viability at 250 µM [1, 2]","viability at 500 µM ([1]; Rattus norvegicus, 500 μM, R24 h = 0%, control = 100%)",IC50 (soybean lipoxygenase LOX),"viability at 0.3 µM [1, 2]","viability at 1 µM [1, 2]","viability at 10 µM [1, 2]",LOX (%) (soybean lipoxygenase LOX)
"CC(C)(C)/[N+]([O-])=C/c1ccc(S(=O)(=O)O)cc1S(=O)(=O)O [Compound 2, sodium (Z)-4-((tert-butyloxidoazanylidene)methyl)benzene-1,3-disulfonate, reference compound]",only produced a significant neuroprotective effect at 250 μM,42.8 ± 2.31%,52.9 ± 2.52%,46.5 ± 1.1%,57.5 µM,–,–,–,–
"COc1ccc2nc(Cl)c(/C=[N+](/C)[O-])cc2c1 [Compound 22, (Z)-1-(2-Chloro-6-methoxyquinolin-3-yl)-N-methylmethanimine oxide]",–,< 0%,< 0%,–,–,< 0%,< 0%,< 0%,26%
"COc1ccc2nc(Cl)c(/C=[N+](\[O-])Cc3ccccc3)cc2c1 [Compound 24, (Z)—N-Benzyl-1-(2-chloro-6-methoxyquinolin-3-yl)methanimine oxide]",–,38.9 ± 1.31%,–,–,100 µM,< 0%,31.3 ± 1.38%,29.7 ± 1.38%,–
"COc1ccc2nc(Cl)c(/C=[N+](\[O-])C(C)(C)C)cc2c1 [Compound 23, (Z)—N-tert-Butyl-1-(2-chloro-6-methoxyquinolin-3-yl)methanimine oxide]",significantly increased neuronal viability,77.1 ± 2.24%,65.9 ± 2.87%,–,–,–,–,52 ± 1.75%,29%
"CC(C)(C)/[N+]([O-])=C/c1cc2ccccc2[nH]c1=O [Compound 19, (Z)—N-tert-Butyl-1-(2-oxo-1,2-dihydroquinolin-3-yl)methanimine oxide]",significantly increased neuronal viability,48.8 ± 2.29%,55 ± 1.89%,–,36.5 µM,–,–,–,–
"CC(C)(C)/[N+]([O-])=C/c1cc2ccccc2nc1Cl [Compound 18, (Z)—N-t-Butyl-1-(2-chloroquinolin-3-yl)methanimine oxide]",–,< 0%,–,–,–,–,9.76 ± 0.84%,29 ± 3.83%,–
"COc1ccc2nc(Cl)c(C=O)cc2c1 [Compound 32, 2-chloro-6-methoxyquinoline-3-carbaldehyde, reference compound]","nor carbaldehyde 32, the precursor of potent QN 23, showed neuroprotective activity",< 0%,–,–,7.6 µM,–,< 0%,< 0%,–
